Assay results as given in patent publication US6525091B2, “Substituted diarylureas as stimulators for Fas-mediated apoptosis” (Telik, Inc., priority 2001, dated 2003).

Tests used:
synoviocytes = assay: Stimulation of Fas-mediated apoptosis with h-HFE7A anti-human Fas antibody, XTT cell viability, stimulation index; format: cell-based; details: 10 μM compound with h-HFE7A 1000 ng/mL, synoviocytes from rheumatoid arthritis patients, 16 hours
Text: Anti-human Fas antibody h-HFE7A, humanized antibody was obtained from Sankyo Co., Ltd. This antibody induces apoptosis when cross-linked with secondary antibody in vitro.
Samples of human synovium were obtained from rheumatoid arthritis patients at the time of total knee replacement surgery or synoviectomy. Synovial tissue was minced into small pieces and was digested with collagenase and cultured in Ham's F12 medium supplemented with 10% fetal bovine serum (F10F) in a humidified 5% CO2 atmosphere at 37° C. Adherent cells were considered as synoviocytes and were cultivated in F10 F.
Cell viability was determined with the XTT method described in Cancer Res. 48:4827 (1988). Ninety-six well flat plates were precoated with anti-human IgG. h-HFE7A (1000 ng/mL) and/or 10 μM of a compound of this invention were added and incubated for 2 hours. Synoviocytes were seeded (10,000/well) and incubated for 16 hours. Background wells received culture medium only. XTT (2,3-Bis[2-methoxy-4-nitro-sulfophenyl]-2H-tetrazolium-5-carboxanilide), final concentration 200 μg/mL, and phenazine methosulfate, final concentration 5 μM, were added to each well, and further incubated for 4 hours. The absorbance at 450 nm was measured and cell viability was determined as follows: [formula]
Enhancement of Fas-mediated apoptosis by compounds of this invention was determined by the stimulation index (SI): [formula] […]

hepatocytes = assay: Fas-dependent apoptosis, FACS analysis of DNA fragmentation (propidium iodide) and annexin V staining; format: cell-based; details: at 10 μM
Description: Assays for Fas-dependent apoptosis are known in the art. See, for example, Ruiz-Ruiz et al, Cell Death Diff. 271 (1999); and Muller et al., J. Exp. Therap. 188:2033 (1998).
Apoptosis is identified by detection of the DNA fragmentation pattern characteristic of apoptotic cell death. In this Example, apoptosis is detected and measured by FACS® analysis carried out in a FACScan® flow cytometer (Becton Dickinson) using CellQuest software. Quantification of DNA fragmentation is performed by FACS® analysis of propidium iodide-stained nuclei as described in Nicolletti et al., J. Immunol. Methods 139:271-279 (1991). Hepatocytes floating in the culture medium are collected by centrifugation at 200×g. Adherent hepatocytes are harvested-by incubation with 1% trypsin for 1 min. The cells are washed in phosphate-buffered saline (PBS), suspended in hypotonic lysis buffer (0.1% sodium citrate, 0.1% Triton X, and […] propidium iodide) (Sigma) and incubated at 4° C. for 6 hours. Cells are then analyzed for DNA content by flow cytometry.
Early apoptotic changes are identified using annexin V-Fluos (Boehringer Mannheim) which binds to phosphatidylserine molecules (PS) exposed on apoptotic, but not normal, cell membranes (PS is normally restricted to the inner leaflet of the cell membrane bilayer). […] Cells are incubated for 10-15 min and analyzed on a flow cytometer using CellQuest software. […]

**Q.** For `O=C(Nc1ccc(Br)c([N+](=O)[O-])c1)Nc1ccc(Br)c([N+](=O)[O-])c1` [Compound 3], which “Enhancement of Fas-mediated apoptosis, stimulation index (SI)” value (synoviocytes) is on record?
**A.** Its value is “positive (An SI over 2.0 was considered positive)”.

**Q.** What about the “stimulation of Fas-dependent apoptosis” value (hepatocytes) of the same compound?
**A.** The value was “stimulation of Fas-dependent apoptosis”.
